Measured values from publication PMC5816602, “Optimized peptide based inhibitors targeting the dihydrofolate reductase pathway in cancer” (Scientific Reports, 2018).
In brackets after ≈: the same amount, converted by molar mass. Read-outs that look alike come from different tables or passages of the source. Residues, ends and D or L forms follow the SMILES beside them.

What was measured:
hDHFR [1] = molecular target: T1, hDHFR (Homo sapiens, UniProt P00374); test: In vitro DHFR inhibition assay (DHFR assay kit, absorbance at 340 nm); type: biochemical
T1 construct: purchased Sigma CS0340
T1 sequence (P00374 1-187): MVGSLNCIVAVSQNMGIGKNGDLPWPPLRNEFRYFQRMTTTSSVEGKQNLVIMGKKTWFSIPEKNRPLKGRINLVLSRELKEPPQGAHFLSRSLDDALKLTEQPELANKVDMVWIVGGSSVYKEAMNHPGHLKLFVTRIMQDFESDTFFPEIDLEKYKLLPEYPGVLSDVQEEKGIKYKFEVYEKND
Protocol: The activity of the designed peptides against hDHFR was evaluated by measuring the conversion of dihydrofolic acid to tetrahydrofolic acid in the presence of the test peptide using […].
The dihydrofolate reductase inhibition assay was performed using DHFR assay kit (Sigma product code CS0340) according to the reported protocol. All the dilutions were made in assay buffer, pH 7.5. 10 mM stock solutions of dihydrofolic acid and NADPH in assay buffer were prepared. Stock solutions of the test peptides with different concentrations were prepared in DMSO, and an amount of 20 μL of each was taken to attain final concentration of 10^−9, 10^−8, 10^−7, 10^−6, 10^−5, and 10^−4 M in the respective wells of 96-well plate containing assay buffer. An amount of 0.1 unit of DHFR as supplied in the kit was diluted, and an amount of 20 μL of its 3 × 10^−3 unit was used in each reaction. Each well of the 96-well plate was charged with 157.8 μL of assay buffer. […] Percentage inhibition of enzymatic activity was calculated after nullifying the effects of NADPH, folate, and solvent. IC50 was calculated by plotting a graph between percentage inhibition and the corresponding concentration of the peptide.

A549 cells = details: 48 hrs, MTT; for effect on cell viability of A549 cells: increasing concentrations
Protocol: Cell viability was measured using 3-(4,5-Dimethylthiazol- 2-yl)-2,5- Diphenyltetrazolium Bromide (MTT) assay. […] Following that, 20 µL of 5 mg/ml of MTT reagent was added in a total volume of 200 µl and incubated for 2 hours. The culture media was removed and the formazan crystals so formed were dissolved in 200 µl of dimethyl sulfoxide (DMSO). Absorbance was measured at 570 nm (with 660 nm reference wavelength) using Tecan plate reader (Infinite M200 Pro). Each individual experiment was repeated at least thrice. Relative cell viability was expressed as a percentage relative to untreated control cells.

hDHFR [2] = molecular target: T1, hDHFR; test: Isothermal titration calorimetry (ITC); type: binding; details: Table 2, read-out: Ka (converted)
Source text: The binding of peptide 2 with hDHFR was further determined using isothermal titration calorimetry (ITC). ITC is considered as one of the most precise techniques to measure the affinity between a macromolecule and a small molecule. Since it measures the heat absorbed or released during complexation, it allows simultaneous determination of all binding parameters with respect to the binding constant (K), enthalpy (ΔH), and entropy (ΔS) in a single experiment. The solution of peptide 2 (in the syringe) was injected into the DHFR enzyme solution taken in the sample cell. In one experiment, 20 consecutive injections of 2 μL of 250 μM peptide were given to the sample cell. Upon each titration, the amount of heat released or absorbed was measured and used to determine the association constant (Ka), binding enthalpy (ΔH), and entropy (ΔS).

[3] = six concentrations 10^−4 to 10^−9 M, assay buffer pH 7.5, read-out: IC50 against hDHFR

| IC50 (hDHFR [1]; [3]) [µM] | SMILES | IC50 (hDHFR [1]) [µM] | other results |
| --- | --- | --- | --- |
|  | CSCC[C@H](NC(=O)[C@@H](N)Cc1ccc(O)cc1)C(=O)N[C@@H](Cc1ccccc1)C(=O)N[C@@H](CO)C(=O)N[C@@H](CC(C)C)C(=O)O [Peptide 12, Tyr-Met-Phe-Ser-Leu] (H-YMFSL-OH) | > 90 |  |
| > 90 | CSCC[C@H](N)C(=O)N[C@@H](Cc1ccccc1)C(=O)N[C@@H](Cc1ccc(O)cc1)C(=O)NCC(=O)O [Peptide 4, Met-Phe-Tyr-Gly] (H-MFYG-OH; N-terminus assumed) |  | effect on cell viability of A549 cells (A549 cells): did not affect their cell viability |
| 8 | CSCC[C@H](N)C(=O)N[C@@H](Cc1ccc(O)cc1)C(=O)N[C@@H](CO)C(=O)N[C@@H](CC(C)C)C(=O)O [Peptide 6, Met-Tyr-Ser-Leu] (H-MYSL-OH; N-terminus assumed) |  |  |
|  | CSCC[C@H](NC(=O)[C@@H](N)Cc1ccc(O)cc1)C(=O)N[C@@H](CO)C(=O)N[C@@H](CC(C)C)C(=O)O [Peptide 5, Tyr-Met-Ser-Leu] (H-YMSL-OH; N-terminus assumed) | > 100 |  |
| > 100 | CSCC[C@H](N)C(=O)N[C@@H](Cc1ccccc1)C(=O)N[C@@H](Cc1ccc(O)cc1)C(=O)NCC(=O)N[C@@H](CC(C)C)C(=O)O [Peptide 10, Met-Phe-Tyr-Gly-Leu] (H-MFYGL-OH) |  |  |
| 5.6 | CSCC[C@H](NC(=O)[C@H](Cc1ccc(O)cc1)NC(=O)[C@@H](N)Cc1ccccc1)C(=O)NCC(=O)O [Peptide 3, Phe-Tyr-Met-Gly] (H-FYMG-OH; N-terminus assumed) |  | effect on cell viability of A549 cells (A549 cells): did not affect their cell viability |
|  | CSCC[C@H](NC(=O)[C@H](Cc1ccccc1)NC(=O)[C@@H](N)Cc1ccc(O)cc1)C(=O)N[C@@H](CC(C)C)C(=O)O [Peptide 1, Tyr-Phe-Met-Leu] (H-YFML-OH; N-terminus assumed) | > 100 |  |
|  | CSCC[C@H](NC(=O)[C@H](Cc1ccccc1)NC(=O)[C@@H](N)Cc1ccc(O)cc1)C(=O)N[C@@H](CC(C)C)C(=O)NCC(=O)O [Peptide 7, Tyr-Phe-Met-Leu-Gly] (H-YFMLG-OH) | > 100 |  |
| > 100 | CSCC[C@H](NC(=O)[C@@H](N)Cc1ccccc1)C(=O)N[C@@H](Cc1ccc(O)cc1)C(=O)N[C@@H](CC(C)C)C(=O)NCC(=O)O [Peptide 8, Phe-Met-Tyr-Leu-Gly] (H-FMYLG-OH) |  |  |
|  | CSCC[C@H](NC(=O)[C@H](Cc1ccc(O)cc1)NC(=O)[C@@H](N)Cc1ccccc1)C(=O)NCC(=O)N[C@@H](CC(C)C)C(=O)O [Peptide 9, Phe-Tyr-Met-Gly-Leu] (H-FYMGL-OH) | > 80 |  |
|  | CSCC[C@H](NC(=O)[C@H](Cc1ccccc1)NC(=O)[C@H](CO)NC(=O)[C@@H](N)Cc1ccc(O)cc1)C(=O)N[C@@H](CC(C)C)C(=O)O [Peptide 11, Tyr-Ser-Phe-Met-Leu] (H-YSFML-OH) | 0.08 |  |

| SMILES | IC50 (hDHFR [1]; [3]) [µM] | IC50 (hDHFR [1]) [µM] | other results |
| --- | --- | --- | --- |
| CSCC[C@H](NC(=O)[C@@H](N)Cc1ccccc1)C(=O)N[C@@H](Cc1ccc(O)cc1)C(=O)N[C@@H](CC(C)C)C(=O)O [Peptide 2, Phe-Met-Tyr-Leu] (H-FMYL-OH) | 0.13 |  | Kd (hDHFR [2]): 0.909 µM; IC50 in A549 cells (A549 cells): 47 µg/mL (≈ 82.1 µM); IC50 (A549 cells; read-out: IC50 in A549 cells): 82 µM |
